For this assay, the target named is T1, ERα (Homo sapiens, UniProt P03372).
T1 construct: host or cells: MCF7
T1 sequence (P03372 1-595): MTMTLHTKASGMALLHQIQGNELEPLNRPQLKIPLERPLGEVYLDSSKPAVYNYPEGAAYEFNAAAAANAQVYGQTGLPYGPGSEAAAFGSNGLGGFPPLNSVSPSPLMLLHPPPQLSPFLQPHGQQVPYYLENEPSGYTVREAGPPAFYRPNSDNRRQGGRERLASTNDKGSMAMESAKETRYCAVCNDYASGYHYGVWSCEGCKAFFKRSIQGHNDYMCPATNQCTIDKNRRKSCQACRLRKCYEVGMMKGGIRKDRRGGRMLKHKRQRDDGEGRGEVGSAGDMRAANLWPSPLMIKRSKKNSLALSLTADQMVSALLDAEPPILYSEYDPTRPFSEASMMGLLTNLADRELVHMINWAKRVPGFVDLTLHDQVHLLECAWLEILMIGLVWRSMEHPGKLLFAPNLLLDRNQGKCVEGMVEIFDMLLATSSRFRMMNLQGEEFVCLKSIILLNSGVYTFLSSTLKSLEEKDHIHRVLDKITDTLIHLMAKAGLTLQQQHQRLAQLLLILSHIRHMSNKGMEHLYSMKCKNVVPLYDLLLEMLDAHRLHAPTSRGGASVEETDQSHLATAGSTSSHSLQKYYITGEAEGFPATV
Kind of assay: Estrogen receptor degradation activity: breast cancer cell ERα in cell western assay (MCF7 cells). In kind it is cell-based. Conditions: for % Degradation At 0.3 μM: 4 hours, relative to fulvestrant 0.1 μM positive control; for DC50: 4 hours post compound addition, concentration which degrades 50% of the estrogen receptor, read-out: Degradation IC50. An outline of the steps:
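Compounds were applied to MCF7 cells in stripped-serum, phenol red-free medium for 4 h at final 0.3–0.0000018 μM, with fulvestrant (0.1 μM) as control. Value: IC50 (nM) for 50% ERα degradation.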

Consider `O=C(O)c1ccc2c(c1)CCCC(c1ccc(Cl)cc1Cl)=C2c1ccc(CC2CN(CCC(F)F)C2)cc1` [Example 223, 8-(2,4-dichlorophenyl)-9-(4-((1-(3,3-difluoropropyl)azetidin-3-yl)methyl)phenyl)-6,7-dihydro-5H-benzo[7]annulene-3-carboxylic acid], for which the “% Degradation At 0.3 μM” value is 92% and the DC50 was determined as 0.2 nM.
The matching figures for `O=C(O)c1ccc2c(c1)SCC(c1ccc(F)cc1F)=C2c1ccc(CC2CN(CCCF)C2)cc1` [Example 314, 3-(2,4-difluorophenyl)-4-(4-((1-(3-fluoropropyl)azetidin-3-yl)methyl)phenyl)-2H-thiochromene-7-carboxylic acid]: 87% and 3 nM.
The matching figures for `Cl.O=C(O)c1ccc2c(c1)OCCC(c1ccccc1Cl)=C2c1ccc(CC2CN(CCCF)C2)cc1` [Example 49, 4-(2-chlorophenyl)-5-(4-((1-(3-fluoropropyl)azetidin-3-yl)methyl)phenyl)-2,3-dihydrobenzo[b]oxepine-8-carboxylic acid]: 82% and 3.4 nM.
For `O=C(O)c1ccc2c(c1)CCCC(c1ccccc1Cl)=C2c1ccc(CC2CN(CCCF)C2)cc1` [Example 3, 8-(2-chlorophenyl)-9-(4-((1-(3-fluoropropyl)azetidin-3-yl)methyl)phenyl)-6,7-dihydro-5H-benzo[7]annulene-3-carboxylic acid], in that order: 89% and 0.3 nM.
For the molecule `O=C(O)c1ccc2c(c1)CCCC(c1ccc(Cl)cc1Cl)=C2c1ccc(C(F)(F)C2CN(CCCF)C2)cc1` [Example 40, 8-(2,4-dichlorophenyl)-9-(4-(difluoro(1-(3-fluoropropyl)azetidin-3-yl)methyl)phenyl)-6,7-dihydro-5H-benzo[7]annulene-3-carboxylic acid], the “% Degradation At 0.3 μM” value was 91% and the DC50 came to 0.4 nM.
For `O=C(O)c1ccc2c(c1)CCCC(c1ccc(Cl)cc1Cl)=C2c1ccc(C(O)C2CN(CCCF)C2)cc1` (single isomer, unassigned) [Example 42, 8-(2,4-dichlorophenyl)-9-(4-((1-(3-fluoropropyl)azetidin-3-yl)(hydroxy)methyl)phenyl)-6,7-dihydro-5H-benzo[7]annulene-3-carboxylic acid], in that order: 94% and 3.3 nM.
For `O=C(O)c1ccc2c(c1)CCCC(c1cccc(F)c1C(F)F)=C2c1ccc(CC2CN(CCCF)C2)cc1` [Example 296, 8-(2-(difluoromethyl)-3-fluorophenyl)-9-(4-((1-(3-fluoropropyl)azetidin-3-yl)methyl)phenyl)-6,7-dihydro-5H-benzo[7]annulene-3-carboxylic acid], in that order: 91% and 0.7 nM.
As for `COc1c(C(=O)O)ccc2c1CCCC(c1ccc(F)cc1C(F)(F)F)=C2c1ccc(CC2CN(CCCF)C2)cc1.Cl` [Example 283, 8-(4-fluoro-2-(trifluoromethyl)phenyl)-9-(4-((1-(3-fluoropropyl)azetidin-3-yl)methyl)phenyl)-4-methoxy-6,7-dihydro-5H-benzo[7]annulene-3-carboxylic acid hydrochloride], the “% Degradation At 0.3 μM” value was 90% and the DC50 was found to be 93.3 nM.
For `Cc1cc(C2=C(c3ccc(Cl)cc3Cl)CCCc3cc(C(=O)O)ccc32)ccc1CC1CN(CCCF)C1.Cl` [Example 48, 8-(2,4-dichlorophenyl)-9-(4-((1-(3-fluoropropyl)azetidin-3-yl)methyl)-3-methylphenyl)-6,7-dihydro-5H-benzo[7]annulene-3-carboxylic acid], in that order: 86% and 0.5 nM.
In the case of `Cc1cc2c(cc1C(=O)O)CCCC(c1ccc(Cl)cc1Cl)=C2c1ccc(CC2CN(CCCF)C2)cc1` [Example 249, 8-(2,4-dichlorophenyl)-9-(4-((1-(3-fluoropropyl)azetidin-3-yl)methyl)phenyl)-2-methyl-6,7-dihydro-5H-benzo[7]annulene-3-carboxylic acid], the “% Degradation At 0.3 μM” value is reported as 90% and the DC50 turned out to be 0.4 nM.
The matching figures for `CC1CCc2cc(C(=O)O)ccc2C(c2ccc(CC3CN(CCCF)C3)cc2)=C1c1cccc(C(F)(F)F)c1` (racemic) [Example 333, 9-(4-((1-(3-fluoropropyl)azetidin-3-yl)methyl)phenyl)-7-methyl-8-(3-(trifluoromethyl)phenyl)-6,7-dihydro-5H-benzo[7]annulene-3-carboxylic acid]: 87% and 0.4 nM.
For `CC1CCc2cc(C(=O)O)ccc2C(c2ccc(CC3CN(CCCF)C3)cc2)=C1c1ccc(Cl)cc1` (single isomer, unassigned) [Example 328, 18-(4-chlorophenyl)-9-(4-((1-(3-fluoropropyl)azetidin-3-yl)methyl)phenyl)-7-methyl-6,7-dihydro-5H-benzo[7]annulene-3-carboxylic acid], the “% Degradation At 0.3 μM” value is reported as 88% and the DC50 was found to be 0.4 nM.
For `O=C(O)c1ccc2c(c1)CCCC(c1ccc(Cl)cc1Cl)=C2c1ccc(C(F)C2CN(CCCF)C2)cc1` (single isomer, unassigned) [Example 44, 8-(2,4-dichlorophenyl)-9-(4-(fluoro(1-(3-fluoropropyl)azetidin-3-yl)methyl)phenyl)-6,7-dihydro-5H-benzo[7]annulene-3-carboxylic acid], the “% Degradation At 0.3 μM” value is 90% and the DC50 was 0.5 nM.
`Cl.O=C(O)c1ccc2c(c1)CCCC(c1ccc(Cl)c(Cl)c1)=C2c1ccc(CC2CN(CCCF)C2)cc1` [Example 207, 8-(3,4-dichlorophenyl)-9-(4-((1-(3-fluoropropyl)azetidin-3-yl)methyl)phenyl)-6,7-dihydro-5H-benzo[7]annulene-3-carboxylic acid hydrochloride]: the “% Degradation At 0.3 μM” value was found to be 92% and the DC50 is 1.1 nM.
As to `O=C(O)c1ccc2c(c1)CCCC(c1cccc(C(F)(F)F)c1F)=C2c1ccc(CC2CN(CCC(F)F)C2)cc1` [Example 288, 9-(4-((1-(3,3-difluoropropyl)azetidin-3-yl)methyl)phenyl)-8-(2-fluoro-3-(trifluoromethyl)phenyl)-6,7-dihydro-5H-benzo[7]annulene-3-carboxylic acid], the “% Degradation At 0.3 μM” value is recorded as 81% and the DC50 was determined as 0.5 nM.
The matching figures for `Cc1c(F)ccc(C2=C(c3ccc(CC4CN(CCC(F)F)C4)cc3)c3ccc(C(=O)O)cc3CCC2)c1C` [Example 285, 9-(4-((1-(3,3-difluoropropyl)azetidin-3-yl)methyl)phenyl)-8-(4-fluoro-2,3-dimethylphenyl)-6,7-dihydro-5H-benzo[7]annulene-3-carboxylic acid]: 89% and 0.4 nM.
For `C[C@H]1CC[C@H](C2=C(c3ccc(CC4CN(CCCF)C4)cc3)c3ccc(C(=O)O)cc3CCC2)CC1` [Example 15, 9-(4-((1-(3-fluoropropyl)azetidin-3-yl)methyl)phenyl)-8-((1r,4r)-4-methylcyclohexyl)-6,7-dihydro-5H-benzo[7]annulene-3-carboxylic acid], in that order: 86% and 4 nM.
Regarding `FCCCN1CC(Cc2ccc(C3=C(c4ccccc4Cl)CCCc4ccccc43)cc2)C1` [Example 304, 3-(4-(8-(2-chlorophenyl)-6,7-dihydro-5H-benzo[7]annulen-9-yl)benzyl)-1-(3-fluoropropyl)azetidine], the “% Degradation At 0.3 μM” value is 89% and the DC50 came to 17.4 nM.
For `O=C(O)c1ccc2c(c1)CCCC(c1ncc(Cl)cc1Cl)=C2c1ccc(CC2CN(CCCF)C2)cc1` [Example 234, 8-(3,5-dichloropyridin-2-yl)-9-(4-((1-(3-fluoropropyl)azetidin-3-yl)methyl)phenyl)-6,7-dihydro-5H-benzo[7]annulene-3-carboxylic acid], in that order: 84% and 1.3 nM.
In the case of `COc1cc(C2=C(c3ccc(CC4CN(CCCF)C4)cc3)c3ccc(C(=O)[O-])cc3CCC2)cc(C(F)(F)F)n1.[Na+]` [Example 274, sodium 9-(4-((1-(3-fluoropropyl)azetidin-3-yl)methyl)phenyl)-8-(2-methoxy-6-(trifluoromethyl)pyridin-4-yl)-6,7-dihydro-5H-benzo[7]annulene-3-carboxylate], the “% Degradation At 0.3 μM” value amounted to 84% and the DC50 turned out to be 6.5 nM.
The matching figures for `CC1(C)CCC(C2=C(c3ccc(CC4CN(CCCF)C4)cc3)c3ccc(C(=O)O)cc3CCC2)CC1.Cl` [Example 13, 8-(4,4-dimethylcyclohexyl)-9-(4-((1-(3-fluoropropyl)azetidin-3-yl)methyl)phenyl)-6,7-dihydro-5H-benzo[7]annulene-3-carboxylic acid]: 85% and 0.3 nM.

These data come from US12595230B2, “Substituted 6,7-dihydro-5H-benzo[7]annulene compounds and their derivatives, processes for their preparation and therapeutic uses thereof” (Sanofi, priority 2020, dated 2026).
